The values below come from patent US10246419B2, “Liver X receptor (LXR) modulators” (Ralexar Therapeutics, Inc., priority 2013, dated 2019).

For orientation: EC50 means the concentration that produces a half-maximal response.

A value given as a limit tells only on which side of the number the result lay.

Chain of human LXRβ (AA 153-461) LBD (P55055 153-460 limits assumed): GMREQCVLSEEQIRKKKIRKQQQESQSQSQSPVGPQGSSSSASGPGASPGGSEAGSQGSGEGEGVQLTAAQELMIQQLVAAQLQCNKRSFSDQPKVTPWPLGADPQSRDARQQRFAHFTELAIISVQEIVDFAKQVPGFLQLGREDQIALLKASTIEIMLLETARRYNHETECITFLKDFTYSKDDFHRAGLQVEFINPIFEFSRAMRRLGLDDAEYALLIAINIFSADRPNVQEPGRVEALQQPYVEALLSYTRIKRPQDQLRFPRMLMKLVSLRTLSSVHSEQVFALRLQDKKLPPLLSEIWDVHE

This assay deals with human LXRβ (AA 153-461) LBD (Homo sapiens (Human), UniProt P55055). The assay can be described thus: Gal4 LXRβ cotransfection assay (LXRβ Gal fusion assay). It counts as cell-based. The conditions noted are these: HEK 293 cells transiently transfected, Gal4-responsive luciferase reporter, compounds 0.01-10 μM. As to the method:
For transient transfection of HEK 293 cells, 6×10^3 cells are plated into 96-well dishes. Each well is transfected with 25 ng 5×UAS-luciferase reporter (pG5luc) and 25 ng of pM human LXRβ (AA 153-461) LBD plasmid using Fugene 6 reagent (Roche; Indianapolis, Ind.). The chimeric protein is assessed for the ability to transactivate a Gal4-responsive luciferase reporter plasmid in a concentration-responsive manner to compounds (0.01-10 μM). Luciferase activity at each dose concentration is measured in triplicate using standard substrate reagents (BD Biosciences; San Diego, Calif.).
A general note: A reporter such as luciferase makes a cellular process visible.
In turn, `CC(C)Cn1nc(C(F)(F)F)cc1-c1ccc(-c2cccc(S(C)(=O)=O)c2)cc1` [Compound 4, 1-isobutyl-5-(3′-(methylsulfonyl)biphenyl-4-yl)-3-(trifluoromethyl)-1H-pyrazole] displayed an EC50 of less than 1000 nM.
Under `CC(C)Cn1nc(C(F)(F)F)cc1-c1ccc(-c2ccc(CO)c(S(C)(=O)=O)c2)cc1` [Compound 5, (4′-(1-isobutyl-3-(trifluoromethyl)-1H-pyrazol-5-yl)-3-(methylsulfonyl)biphenyl-4-yl)methanol] stands less than 1000 nM; under `CC(C)Cn1nc(C(=O)NCC(F)(F)F)cc1-c1ccc(-c2cccc(S(C)(=O)=O)c2)cc1` [Compound 6, 1-Isobutyl-5-(3′-(methylsulfonyl)-[1,1′-biphenyl]-4-yl)-N-(2,2,2-trifluoroethyl)-1H-pyrazole-3-carboxamide], less than 1000 nM; under `CC(C)Cn1nc(C(=O)NCC(F)(F)F)cc1-c1ccc(-c2ccc(CO)c(S(C)(=O)=O)c2)cc1` [Compound 7, 5-(4′-(Hydroxymethyl)-3′-(methylsulfonyl)-[1,1′-biphenyl]-4-yl)-1-isobutyl-N-(2,2,2-trifluoroethyl)-1H-pyrazole-3-carboxamide], less than 1000 nM.
Compound `CC(C)Cc1nc(C(C)(C)O)cn1-c1ccc(-c2cccc(S(C)(=O)=O)c2)cc1` [Compound 8, 2-(2-isobutyl-1-(3′-(methylsulfonyl)-[1,1′-biphenyl]-4-yl)-1H-imidazol-4-yl)propan-2-ol] showed a half-maximal effective concentration (EC50) of 1000 to 10000 nM.
`C=C(C)c1cc(-c2ccc(-c3cccc(S(C)(=O)=O)c3)cc2)n(CC(C)C)n1` [Compound 9, 1-isobutyl-5-(3′-(methylsulfonyl)-[1,1′-biphenyl]-4-yl)-3-(prop-1-en-2-yl)-1H-pyrazole] registered an EC50 of 1000 to 10000 nM.
Next, `CC(C)Cn1nc(C(C)(C)O)cc1-c1ccc(-c2ccc(CO)c(S(C)(=O)=O)c2)cc1` [Compound 10, 2-(5-(4′-(Hydroxymethyl)-3′-(methylsulfonyl)-[1,1′-biphenyl]-4-yl)-1-isobutyl-1H-pyrazol-3-yl)propan-2-ol]: 1000 to 10000 nM.
Next, `CC(C)Cn1nc(C(C)(C)O)cc1-c1ccc(-c2cccc(S(C)(=O)=O)c2)cc1` [Compound 11, 2-(1-isobutyl-5-(3′-(methylsulfonyl)-[1,1′-biphenyl]-4-yl)-1H-pyrazol-3-yl)propan-2-ol]: 1000 to 10000 nM.
Under `CC(C)Cn1nc(C(C)C)cc1-c1ccc(-c2cccc(S(C)(=O)=O)c2)cc1` [Compound 12, 1-isobutyl-3-isopropyl-5-(3′-(methylsulfonyl)-[1,1′-biphenyl]-4-yl)-1H-pyrazole] stands 1000 to 10000 nM.
`CS(=O)(=O)c1cccc(-c2ccc(-c3cc(C(F)(F)F)nn3CC3CC3)cc2)c1` [Compound 18, 1-(cyclopropylmethyl)-5-(3′-(methylsulfonyl)-[1,1′-biphenyl]-4-yl)-3-(trifluoromethyl)-1H-pyrazole] gave a 50% effective concentration (EC50) of less than 1000 nM.
Next, `CCC(C)n1nc(C(F)(F)F)cc1-c1ccc(-c2cccc(S(C)(=O)=O)c2)cc1` (stereo not shown) [Compound 19, 1-(sec-butyl)-5-(3′-(methylsulfonyl)-[1,1′-biphenyl]-4-yl)-3-(trifluoromethyl)-1H-pyrazole]: greater than 10000 nM; `CS(=O)(=O)c1cccc(-c2ccc(-c3cc(C(F)(F)F)nn3C3CCCCC3)cc2)c1` [Compound 20, 1-cyclohexyl-5-(3′-(methylsulfonyl)-[1,1′-biphenyl]-4-yl)-3-(trifluoromethyl)-1H-pyrazole]: greater than 10000 nM.
For the compound `CS(=O)(=O)c1cccc(-c2ccc(-c3cc(C(F)(F)F)nn3CC3CCCCC3)cc2)c1` [Compound 21, 1-(cyclohexylmethyl)-5-(3′-(methylsulfonyl)-[1,1′-biphenyl]-4-yl)-3-(trifluoromethyl)-1H-pyrazole], the EC50 is less than 1000 nM.
